Measured values as given in patent US20250388584A1, “TPK AGONIST AND METHOD FOR TREATING NEURODEGENERATIVE DISEASES USING SAME” (SHANGHAI RAISING PHARMACEUTICAL CO., LTD., priority 2022, published 2025).
Where a name gives a salt, the structure may show the parent alone. Read-outs that look alike come from different tables or passages of the source.

Target: TPK enzyme (Homo sapiens (Human), UniProt Q9H3S4)
Test: TPK enzyme activity test
Assay type: biochemical
Settings: for EC50: promoting effect on TPK enzyme activity; for Emax: calculated with the effect of DMSO on TPK enzyme activity as 100%

Chain of TPK enzyme (Q9H3S4 whole entry): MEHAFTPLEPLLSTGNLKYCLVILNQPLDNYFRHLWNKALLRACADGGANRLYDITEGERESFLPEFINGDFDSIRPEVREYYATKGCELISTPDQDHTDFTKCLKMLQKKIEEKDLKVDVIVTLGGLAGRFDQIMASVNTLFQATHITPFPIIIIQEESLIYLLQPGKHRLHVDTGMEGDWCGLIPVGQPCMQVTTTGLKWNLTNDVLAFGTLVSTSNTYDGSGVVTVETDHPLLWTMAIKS

Row | SMILES | EC50 [nM] | Emax (read-out: Emax) [%] | Emax [%]
1 | Cc1ccc2c(c1)-c1ncn(CCC(=O)N3CCC(Cc4ccc(F)cc4)CC3)c(=O)c1CC2 [Compound 225, 3-(3-(4-(4-fluorobenzyl)piperidin-1-yl)-3-oxopropyl)-9-methyl-5,6-dihydrobenzo[h]quinazolin-4(3H)-one] | 930 | – | –
2 | Cc1ccc2c(c1)-c1nc(=O)n(CCCN3CCN(c4cccc(Cl)c4Cl)CC3)cc1CO2 [Compound 213, 3-(3-(4-(2,3-dichlorophenyl)piperazin-1-yl)propyl)-9-methyl-3,5-dihydro-2H-chromeno[4,3-d]pyrimidin-2-one] | 546 | 174 | –
3 | Cc1ccc(C)c(N2CCN(C(=O)CCn3cnc4c([nH]c5ccc(C)cc54)c3=O)CC2)c1 [Compound 34] | 1370 | 167 | –
4 | Cc1cccc(N2CCN(C(=O)CCn3cnc4c([nH]c5ccc(C)cc54)c3=O)CC2)c1 [Compound 38] | – | 145 | –
5 | O=C1CCc2ccc(OCCCCN3c4ccccc4Sc4ccc(C(F)(F)F)cc43)cc2N1 [Compound 204] | 107 | – | 186.22
6 | Cc1ccc2[nH]c3c(=O)n(CC(=O)N4CCN(c5ccc(F)cc5)CC4)cnc3c2c1 [Compound 63] | – | 148 | –
7 | O=C1Cc2ccc(OCCCN3c4ccccc4Sc4ccccc43)cc2N1 [Compound 190, 6-(3-(10H-phenothiazin-10-yl)propoxy)indoline-2-one] | 1110 | 164 | –
8 | Cc1ccc2c(c1)-c1ncn(CCCC(=O)N3CCCC(Cc4ccc(F)cc4)C3)c(=O)c1CC2 (stereo not drawn) [Compound 223, 3-(4-(3-(4-fluorobenzyl)piperidin-1-yl)-4-oxobutyl)-9-methyl-5,6-dihydrobenzo[h]quinazolin-4(3H)-one] | 1330 | – | 152.22
9 | Cc1ccc2c(c1)N1CCCC(C(=O)NCCCN3CCN(c4cccc(C(F)(F)F)c4)CC3)C1CO2 (stereo not drawn) [Formate salt of 232, 2-methyl-N-(3-(4-(3-trifluoromethylphenyl)piperazin-1-yl)propyl)-6,6a,7,8,9,10-hexahydrobenzo[b]pyrido[1,2-d][1,4]oxazine-7-carboxamide Formate] | 1810 | – | 136
10 | Cc1ccc2[nH]c3c(=O)n(CCC(=O)NCc4cccc(S(N)(=O)=O)c4)cnc3c2c1 [Compound 88] | – | 124 | –
11 | Cc1ccc2c(c1)[nH]c1c(=O)n(CCC(=O)N3CCN(c4cccc(C(F)(F)F)c4)CC3)cnc12 [Compound 22, 7-methyl-3-(3-oxo-3-(4-(3-(trifluoromethyl)phenyl)piperazin-1-yl)propyl)-3,5-dihydro-4H-pyrimido[5,4-b]indol-4-one] | – | 207 | –
12 | Cc1ccc2[nH]c3c(=O)n(CCC(=O)N4CCN(c5ccccc5)CC4)cnc3c2c1 [Compound 32] | – | 123 | –
13 | Cc1ccc2[nH]c3c(=O)n(CCC(=O)N4CCN(c5cccc(C)c5C)CC4)cnc3c2c1 [Compound 44] | 3300 | 152 | –
14 | Cc1ccc2[nH]c3c(=O)n(CCC(=O)NCCNc4cccc(C(F)(F)F)c4)cnc3c2c1 [Compound 89, 3-(8-methyl-4-oxo-4,5-dihydro-3H-pyrimido[5,4-b]indol-3-yl)-N-(2-((3-(trifluoromethyl)phenyl)amino)ethyl)propanamide] | – | 132 | –
15 | Cc1ccc2[nH]c3c(=O)n(CCC(=O)N4CCN(c5cccc(N)c5)CC4)cnc3c2c1 [Compound 26, 3-(3-(4-(3-aminophenyl)piperazin-1-yl)-3-oxopropyl)-8-methyl-3,5-dihydro-4H-pyrimido[5,4-b]indol-4-one] | 2620 | 166 | –
16 | O=C(CCn1cnc2c([nH]c3ccc(C(F)(F)F)cc32)c1=O)N1CCN(Cc2cc(F)c(F)c(F)c2)CC1 [Compound 54, 3-(3-oxo-3-(4-(3,4,5-trifluorobenzyl)piperazin-1-yl)propyl)-8-(trifluoromethyl)-3,5-dihydro-4H-pyrimido[5,4-b]indol-4-one] | 1680 | 170 | –
17 | Cc1ccc2[nH]c3c(=O)n(CCC(=O)NCCCc4cccc(C(F)(F)F)c4)cnc3c2c1 [Compound 69, 3-(8-methyl-4-oxo-4,5-dihydro-3H-pyrimido[5,4-b]indol-3-yl)-N-(3-(3-(trifluoromethyl)phenyl)propyl)propanamide] | – | 168 | –
18 | O=C(CCn1cnc2c([nH]c3ccc(F)cc32)c1=O)N1CCN(c2cccc(C(F)(F)F)c2)CC1 [Compound 153, 8-fluoro-3-(3-oxo-3-(4-(3-(trifluoromethyl)phenyl)piperazin-1-yl)propyl)-3,5-dihydro-4H-pyrimido[5,4-b]indol-4-one] | 3170 | – | 130.73
19 | Cc1ccc2[nH]c3c(=O)n(CC(=O)N4CCN(c5cccc(C(F)(F)F)c5)CC4)cnc3c2c1 [Compound 41] | – | 141 | –

Row | SMILES | EC50 [nM] | Emax (read-out: Emax) [%] | Emax [%]
20 | Cc1ccc2[nH]c3c(=O)n(CCC(=O)N4CCC(N(C)c5cccc(Cl)c5Cl)CC4)cnc3c2c1 [Compound 166, 3-(3-(4-((2,3-dichlorophenyl)(methyl)amino)piperidin-1-yl)-3-oxopropyl)-8-methyl-3,5-dihydro-4H-pyrimido[5,4-b]indol-4-one] | 495 | 119 | –
21 | Cc1ccc2[nH]c3c(=O)n(CCC(=O)N4CCN(c5ccc(Cl)c(Cl)c5)CC4)cnc3c2c1 [Compound 9, 3-(3-(4-(3,4-dichlorophenyl)piperazin-1-yl)-3-oxopropyl)-8-methyl-3,5-dihydro-4H-pyrimido[5,4-b]indol-4-one] | 768 | 147 | –
22 | Cc1ccc2[nH]c3c(=O)n(CCC(=O)N4CCN(c5ccccc5C(F)(F)F)CC4)cnc3c2c1 [Compound 4, 8-methyl-3-(3-oxo-3-(4-(2-(trifluoromethyl)phenyl)piperazin-1-yl)propyl)-3,5-dihydro-4H-pyrimido[5,4-b]indol-4-one] | – | 128 | –
23 | O=c1c2c(ncn1CCCN1CCN(c3cccc(Cl)c3Cl)CC1)-c1ccccc1CCC2 [Formate salt of 222, 3-(3-(4-(2,3-dichlorophenyl)piperazin-1-yl)propyl)-3,5,6,7-tetrahydro-4H-benzo[6,7]cyclohepta[1,2-d]pyrimidin-4-one Formate] | 500 | – | 143
24 | Cc1cccc2[nH]c3c(=O)n(CCC(=O)N4CCN(c5cccc(C(F)(F)F)c5)CC4)cnc3c12 [Compound 11, 9-methyl-3-(3-oxo-3-(4-(3-(trifluoromethyl)phenyl)piperazin-1-yl)propyl)-3,5-dihydro-4H-pyrimido[5,4-b]indol-4-one] | 1080 | 180 | –
25 | O=C1CCCCN1CCCCCCN1c2ccccc2Sc2ccc(C(F)(F)F)cc21 [Compound 187, 1-(6-(2-(trifluoromethyl)-10H-phenothiazin-10-yl)hexyl)piperidin-2-one] | 1130 | 191 | –
26 | Cc1ccc2c(c1)-c1nc(=O)n(CCCC(=O)N3CCC(Cc4ccc(F)cc4)CC3)cc1CO2 [Compound 220, 3-(4-(4-(4-fluorobenzyl)piperidin-1-yl)-4-oxobutyl)-9-methyl-3,5-dihydro-2H-chromeno[4,3-d]pyrimidin-2-one] | 3890 | 157 | –
27 | Cc1cccc2[nH]c3c(=O)n(CCC(=O)NCc4cccc(C(F)(F)F)c4)cnc3c12 [Compound 77, 3-(9-methyl-4-oxo-4,5-dihydro-3H-pyrimido[5,4-b]indol-3-yl)-N-(3-(trifluoromethyl)benzyl)propanamide] | – | 122 | –
28 | O=C1CCc2ccc(OCCCCN3c4ccccc4Sc4ccc(C(F)(F)F)cc43)cc2N1 [Compound 205, 7-(4-(2-(trifluoromethyl)-10H-phenothiazin-10-yl)butoxy)-3,4-dihydroquinolin-2(1H)-one] | – | – | 137.51
29 | C[C@H](OC(C)(C)C)[C@@H](NC(=O)OCC1c2ccccc2-c2ccccc21)C(=O)O [Compound 142] | 9040 | 224 | –
30 | Cc1ccc2c(c1)[nH]c1c(=O)n(CCC(=O)N3CCN(c4c(Cl)cccc4Cl)CC3)cnc12 [Compound 20, 3-(3-(4-(2,6-dichlorophenyl)piperazin-1-yl)-3-oxopropyl)-7-methyl-3,5-dihydro-4H-pyrimido[5,4-b]indol-4-one] | – | 121 | –
31 | O=C(O)CCC(=O)OCCN1CCN(CCC(=O)N2c3ccccc3Sc3ccc(C(F)(F)F)cc32)CC1 [Compound 199] | 490 | 204 | –
32 | COc1cccc(CNC(=O)CCn2cnc3c([nH]c4ccc(C)cc43)c2=O)c1 [Compound 81] | – | 123 | –
33 | O=C(CCn1cnc2c(c1=O)CCCc1ccccc1-2)N1CCN(c2cccc(C(F)(F)F)c2)CC1 [Compound 221, 3-(3-oxo-3-(4-(3-(trifluoromethyl)phenyl)piperazin-1-yl)propyl)-3,5,6,7-tetrahydro-4H-benzo[6,7]cyclohepta[1,2-d]pyrimidin-4-one] | 1650 | 154 | –
34 | COc1ccccc1N1CCN(C(=O)CCn2cnc3c([nH]c4ccc(C)cc43)c2=O)CC1 [Compound 47] | – | 135 | –
35 | O=C1c2ccccc2CN1CCCN1CCSc2ccc(C(F)(F)F)cc21 [Compound 197, 2-(3-(6-(trifluoromethyl)-2,3-dihydro-4H-benzo[b][1,4]thiazin-4-yl)propyl)isoindolin-1-one] | – | 132 | –
36 | Cc1ccc2[nH]c3c(=O)n(CCC(=O)N4CCN(c5cccc(S(=O)(=O)N6CCCCC6)c5)CC4)cnc3c2c1 [Compound 170, 8-methyl-3-(3-oxo-3-(4-(3-(piperidin-1-ylsulfonyl)phenyl)piperazin-1-yl)propyl)-3,5-dihydro-4H-pyrimido[5,4-b]indol-4-one] | 2370 | 151 | –
37 | Cc1ccc2[nH]c3c(=O)n(CCC(=O)N4CCN(c5ccc(S(=O)(=O)N6CCCCC6)cc5)CC4)cnc3c2c1 [Compound 169, 8-methyl-3-(3-oxo-3-(4-(4-(piperidin-1-ylsulfonyl)phenyl)piperazin-1-yl)propyl)-3,5-dihydro-4H-pyri mid[5,4-b]indol-4-one] | 2140 | 147 | –
38 | O=C(CCCn1cnc2c(c1=O)CCCc1ccccc1-2)N1CCN(c2cccc(C(F)(F)F)c2)CC1 [Compound 228, 3-(4-oxo-4-(4-(3-(trifluoromethyl)phenyl)piperazin-1-yl)butyl)-3,5,6,7-tetrahydro-4H-benzo[6,7]cyclohepta[1,2-d]pyrimidin-4-one] | 2130 | 148 | –
